We go through 31 molecules from ChEMBL document CHEMBL4017452, “Novel boronic acid derivatives of bis(indolyl) methane as anti-MRSA agents” (2017).

The subject of experiment [1] is Staphylococcus aureus. The experiment can be described thus: Antibacterial activity against methicillin-resistant Staphylococcus aureus clinical isolates after 18 hrs by CLSI method. The class given is functional.
Experiment [2] has as its system Staphylococcus aureus. As to the kind of experiment: Binding affinity to methicillin-resistant Staphylococcus aureus [(Ac)2-L-Lys-D-Ala-/-D-Ala] assessed as change in enthalpy by isothermal titration calorimetric method.
Experiment [3] relates to Staphylococcus aureus. The experiment can be described thus: Binding affinity to methicillin-resistant Staphylococcus aureus [(Ac)2-L-Lys-D-Ala-/-D-Ala] assessed as change in entropy by isothermal titration calorimetric method.
The subject of experiment [4] is Staphylococcus aureus. The experiment can be described thus: Bactericidal activity against methicillin-resistant Staphylococcus aureus at 0.8 to 4 ug/ml. The class given is functional.
Experiment [5] deals with Staphylococcus aureus. As to the kind of experiment: Binding affinity to methicillin-resistant Staphylococcus aureus [(Ac)2-L-Lys-D-Ala-/-D-Ala] by isothermal titration calorimetric method.
For experiment [6], the system named is Staphylococcus aureus. As to the kind of experiment: Bactericidal activity against methicillin-resistant Staphylococcus aureus at 1.6 to 8 ug/ml. Format: functional.

≈ marks a conversion by molar mass, not a printed value. Calls of active or inactive are those of the source. The calls are words filed in the database; no cut-off is given here.

As for `O=[N+]([O-])c1ccc2[nH]cc(C(c3ccc(C(c4c[nH]c5ccc([N+](=O)[O-])cc45)c4c[nH]c5ccc([N+](=O)[O-])cc45)cc3)c3c[nH]c4ccc([N+](=O)[O-])cc34)c2c1`, the MIC with Staphylococcus aureus [1] was 500 µg/mL (≈ 670 µM).

`Brc1ccc(C(c2c[nH]c3ccccc23)c2c[nH]c3ccccc23)cc1` came in with an MIC against Staphylococcus aureus [1] of 500 µg/mL (≈ 1250 µM).

Take `OB(O)c1cccc(C(c2c[nH]c3ccccc23)c2c[nH]c3ccccc23)c1`: the deltaH in the experiment with Staphylococcus aureus [2] was -0.0494 kcal/mol. The molecule also came in with an MIC in the experiment on Staphylococcus aureus [1] of 3.91 µg/mL (≈ 10.7 µM). Besides, the deltaS with Staphylococcus aureus [3] was -59.5 cal/mol/deg. For the same molecule, in the experiment on Staphylococcus aureus [4], the outcome was Active. For the same molecule, the K in the experiment with Staphylococcus aureus [5] came out at 242 M⁻¹.

`O=Cc1ccc(C(c2c[nH]c3ccccc23)c2c[nH]c3ccccc23)cc1` showed a minimum inhibitory concentration (MIC) against Staphylococcus aureus [1] of 500 µg/mL (≈ 1430 µM).

As to `O=[N+]([O-])c1ccc(N/N=C/c2ccc(C(c3c[nH]c4ccccc34)c3c[nH]c4ccccc34)cc2)c([N+](=O)[O-])c1`, the MIC in the experiment with Staphylococcus aureus [1] amounted to 500 µg/mL (≈ 942 µM).

In the experiment with Staphylococcus aureus [1], `c1ccc(C(c2c[nH]c3ccccc23)c2c[nH]c3ccccc23)cc1` displayed an MIC greater than 1000 µg/mL.

`O=[N+]([O-])c1ccccc1C(c1c[nH]c2ccccc12)c1c[nH]c2ccccc12` returned an MIC in the experiment with Staphylococcus aureus [1] of 500 µg/mL (≈ 1360 µM).

As to `COc1ccc2[nH]cc(C(c3ccc(C(c4c[nH]c5ccc(OC)cc45)c4c[nH]c5ccc(OC)cc45)cc3)c3c[nH]c4ccc(OC)cc34)c2c1`, in the experiment on Staphylococcus aureus [1], the MIC amounted to 500 µg/mL (≈ 728 µM).

On to `Cc1ccc(C(c2c[nH]c3ccc([N+](=O)[O-])cc23)c2c[nH]c3ccc([N+](=O)[O-])cc23)cc1`, for which the minimum inhibitory concentration (MIC) in the experiment with Staphylococcus aureus [1] is greater than 1000 µg/mL.

Consider `O=[N+]([O-])c1ccc2[nH]cc(C(c3ccc(Br)cc3)c3c[nH]c4ccc([N+](=O)[O-])cc34)c2c1`, for which the MIC in the experiment on Staphylococcus aureus [1] was 500 µg/mL (≈ 1020 µM).

In turn, `O=[N+]([O-])c1cccc(C(c2c[nH]c3ccccc23)c2c[nH]c3ccccc23)c1` had an MIC with Staphylococcus aureus [1] of 15.6 µg/mL (≈ 42.5 µM).

In the experiment with Staphylococcus aureus [1], `Cc1ccc(C(c2c[nH]c3ccc(Br)cc23)c2c[nH]c3ccc(Br)cc23)cc1` gave an MIC of 62.5 µg/mL (≈ 126 µM).

In the experiment with Staphylococcus aureus [1], `O=[N+]([O-])c1ccc(C(c2c[nH]c3ccc(Br)cc23)c2c[nH]c3ccc(Br)cc23)cc1` displayed an MIC of 15.6 µg/mL (≈ 29.7 µM).

In the experiment on Staphylococcus aureus [1], `Brc1ccc2[nH]cc(C(c3ccccc3)c3c[nH]c4ccc(Br)cc34)c2c1` gave an MIC greater than 1000 µg/mL.

`Cc1ccc(C(c2c[nH]c3ccccc23)c2c[nH]c3ccccc23)cc1` came in with a minimum inhibitory concentration (MIC) in the experiment with Staphylococcus aureus [1] greater than 1000 µg/mL.

In turn, `OB(O)c1ccc(C(c2c[nH]c3ccccc23)c2c[nH]c3ccccc23)cc1` returned an MIC against Staphylococcus aureus [1] of 7.81 µg/mL (≈ 21.3 µM). Moreover, in the experiment on Staphylococcus aureus [6], the result was Active.

Turning to `CN(C)c1ccc(C(c2c[nH]c3ccccc23)c2c[nH]c3ccccc23)cc1`, the MIC against Staphylococcus aureus [1] was greater than 1000 µg/mL.

In the experiment with Staphylococcus aureus [1], `O=[N+]([O-])c1ccc(C(c2c[nH]c3ccc([N+](=O)[O-])cc23)c2c[nH]c3ccc([N+](=O)[O-])cc23)cc1` gave an MIC of 31.2 µg/mL (≈ 68.3 µM).

In the experiment with Staphylococcus aureus [1], `O=[N+]([O-])c1ccc(C(c2c[nH]c3ccccc23)c2c[nH]c3ccccc23)cc1` showed an MIC of 500 µg/mL (≈ 1360 µM).

Molecule `COc1ccc2[nH]cc(C(c3ccc(/C=N/Nc4ccc([N+](=O)[O-])cc4[N+](=O)[O-])cc3)c3c[nH]c4ccc(OC)cc34)c2c1` returned a minimal inhibitory concentration (MIC) in the experiment with Staphylococcus aureus [1] of 250 µg/mL (≈ 423 µM).

With `COc1ccc2[nH]cc(C(c3ccccc3[N+](=O)[O-])c3c[nH]c4ccc(OC)cc34)c2c1`, the MIC against Staphylococcus aureus [1] is 500 µg/mL (≈ 1170 µM).

In turn, `Brc1ccc(C(c2c[nH]c3ccc(Br)cc23)c2c[nH]c3ccc(Br)cc23)cc1` gave an MIC in the experiment on Staphylococcus aureus [1] of 31.2 µg/mL (≈ 55.9 µM).

In the experiment with Staphylococcus aureus [1], `c1ccc2c(C(c3ccc(C(c4c[nH]c5ccccc45)c4c[nH]c5ccccc45)cc3)c3c[nH]c4ccccc34)c[nH]c2c1` displayed an MIC of 1000 µg/mL (≈ 1760 µM).

`COc1ccc2[nH]cc(C(c3ccccc3)c3c[nH]c4ccc(OC)cc34)c2c1` registered an MIC against Staphylococcus aureus [1] greater than 1000 µg/mL.

`COc1ccc2[nH]cc(C(c3ccc([N+](=O)[O-])cc3)c3c[nH]c4ccc(OC)cc34)c2c1`: the minimum inhibitory concentration (MIC) in the experiment with Staphylococcus aureus [1] is greater than 1000 µg/mL.

On to `COc1ccc2[nH]cc(C(c3ccc(N(C)C)cc3)c3c[nH]c4ccc(OC)cc34)c2c1`, for which, in the experiment on Staphylococcus aureus [1], the MIC was greater than 1000 µg/mL.

For `COc1ccc2[nH]cc(C(c3ccc(Br)cc3)c3c[nH]c4ccc(OC)cc34)c2c1`, in the experiment on Staphylococcus aureus [1], the MIC was determined as 62.5 µg/mL (≈ 135 µM).

Turning to `COc1ccc(C(c2c[nH]c3ccc([N+](=O)[O-])cc23)c2c[nH]c3ccc([N+](=O)[O-])cc23)cc1`, in the experiment with Staphylococcus aureus [1], the minimal inhibitory concentration (MIC) was greater than 1000 µg/mL.

In the experiment with Staphylococcus aureus [1], `OB(O)c1ccccc1C(c1c[nH]c2ccccc12)c1c[nH]c2ccccc12` registered an MIC of 3.91 µg/mL (≈ 10.7 µM). The outcome in the experiment with Staphylococcus aureus [4] was Active.

Take `COc1ccc(C(c2c[nH]c3ccc(OC)cc23)c2c[nH]c3ccc(OC)cc23)cc1`: in the experiment on Staphylococcus aureus [1], the MIC was greater than 1000 µg/mL.

`COc1ccc2[nH]cc(C(c3ccc(C)cc3)c3c[nH]c4ccc(OC)cc34)c2c1` returned a minimum inhibitory concentration (MIC) in the experiment on Staphylococcus aureus [1] greater than 1000 µg/mL.
